Test results published in publication PMC10744608, “Simplified Synthesis of Renieramycin T Derivatives to Target Cancer Stem Cells via β-Catenin Proteasomal Degradation in Human Lung Cancer” (Marine Drugs, 2023).

Experiments:
Assay type in all cases: cell-based, human
A549 cells = experiment: Immunoprecipitation of β-catenin–ubiquitin complex; details: A549, 50 nM, compared to cells treated with RT
Experimental: (§1) The DH_32-treated A549, H23, and H292 cells were collected using cold PBS and incubated on ice in a lysis buffer. This buffer consisted of 50 mM 4-(2-hydroxyethyl)-1-piperazineethanesulfonic acid at pH 7.5, 150 mM NaCl, 5 mM EDTA, 1% Triton X-100, 1 mM phenylmethylsulfonyl fluoride, and 2 μg/mL pepstatin A (catalog no: 9803, Cell Signaling), along with complete protease inhibitor cocktail tablets from the EASYpack (Roche, catalog no: 04693116001). The incubation took place for 40 min on ice, followed by centrifugation at 12,000× g at 4 °C for 15 min.
(§2) Subsequently, immunoprecipitation was carried out using the Dynabeads™ Protein G Immunoprecipitation Kit from Thermo Fisher Scientific Inc. (Waltham, MA, USA). The magnetic beads were prepared and added to 100 μL of Ab binding and washing buffer that contained β-catenin (2 μL) for 15 min on rotation at room temperature. The complex of magnetic beads and antibodies was re-suspended in a protein lysis buffer and left to incubate at 4 °C overnight, facilitating the binding of the β-catenin antigen with the magnetic bead–antibody complex. The magnetic bead–Ab–Ag complex was washed three times using 200 μL of washing buffer. The magnetic bead–antibody–antigen complex was resuspended in the lysis buffer (30 μL), and the 6x sample buffer (5 μL) was denatured by heating at 95 °C for 5 min. The antigen–antibody complex was loaded onto a 12% sodium dodecyl sulfate polyacrylamide gel electrophoresis (SDS-PAGE). Following gel separation, the proteins were transferred onto a nitrocellulose membrane with a pore size of 0.45 μm. After transfer, the membrane was placed in a mixture containing 5% nonfat dry milk in TBST (composed of 25 mm Tris-HCl, pH 7.4, 125 mm NaCl, and 0.05% Tween 20) for a duration of 1 h 30 min. Following this, the proteins were exposed to primary antibodies (Cell Signaling), specifically ubiquitin mouse mAb (cat no: 14049), and left to incubate overnight at 4 °C. […] Protein intensity was analyzed by using ImageJ software (Image J 1.52a, Rasband, W., National Institutes of Health, USA). […]

H292 cells = experiment: Immunoprecipitation of β-catenin–ubiquitin complex; details: H292, 50 nM, compared to cells treated with RT
Experimental: as §1, §2

H23 cells = experiment: Immunoprecipitation of β-catenin–ubiquitin complex; details: H23, 50 nM, compared to cells treated with RT
Experimental: as §1, §2

[1] = system: β-catenin in A549, H23, and H292 cells; experiment: Western blot of β-catenin; details: 0–100 nM, 24 h
Experimental: (§3) The protein expression levels in NSCLC cells were assessed through Western blot analysis. A549, H23, and H292 cells were seeded at a density of 4 × 10^5 cells per well in 6-well cell culture plates. These cells were subjected to treatments with DH_32 at concentrations of 0, 25, 50, and 100 nM for 24 h at 37 °C.
(§4) Following treatment, the cells were collected using cold PBS and incubated on ice with a lysis buffer. The lysis buffer contained 50 mM 4-(2-hydroxyethyl)-1-piperazineethanesulfonic acid (pH 7.5), 150 mM NaCl, 5 mM EDTA, 1% Triton X-100, 1 mM phenylmethylsufonyl fluoride, and 2 μg/mL pepstatin A (cat no: 9803, Cell Signaling), along with complete protease inhibitor cocktail tablets provided in EASYpack (Roche, cat no: 04693116001). The incubation occurred for 40 min on ice, followed by centrifugation at 12,000× g at 4 °C for 15 min. Cell lysates were collected, and the protein content was quantified using the bicinchoninic acid (BCA) protein kit from Thermo-Fisher Scientific, Rockford, IL, USA. […] A chemiluminescent substrate (Supersignal West Pico; Pierce, Rockford, IL, USA) was applied to detect complex reactivity, and the signal intensity was quantified through densitometry. Protein intensity was analyzed by using ImageJ software (Image J 1.52a, Rasband, W., National Institutes of Health, Bethesda, MD, USA). […]

[2] = system: A549, H23, and H292 cells; experiment: Western blot of CSC markers; details: 25, 50, and 100 nM, 24 h
Experimental: as §3, §4

**Q.** How did the “increase in level of β-catenin–ubiquitin complex” value (from here on “increase in level”) (A549 cells) turn out when `COC1=C(C)C(=O)C2=C(C1=O)[C@@H]1CN(Cc3ccc4ccccc4c3)[C@@H](C#N)[C@H](C2)N1C` [DH_32, (1R,4R,5S)-9-methoxy-8,11-dimethyl-3-(naphthalen-2-ylmethyl)-7,10-dioxo-1,2,3,4,5,6,7,10-octahydro-1,5-epiminobenzo[d]azocine-4-carbonitrile] was run?
**A.** The value was 2.5 fold.

**Q.** And the “increase in level” value (H292 cells)?
**A.** Its value is 3.5 fold.

**Q.** What about the “increase in level” value (H23 cells) of the same compound?
**A.** The value was “two-fold increase”.

**Q.** And the “β-catenin protein level by Western blot” value [1]?
**A.** Its value is “significant decrease in the β-catenin protein level”.

**Q.** What about the “CSC markers CD133, CD44, OCT4, and ALDH1A1 by western blot” value [2] of the same compound?
**A.** The value was “dramatic decrease”.
